Laboratory results reported in PubChem BioAssay AID1963872 (Molecular Pharmacology Branch, DTP, NCI, 2024).

System: KRAS patient-derived spheroids with HUVEC/MSC, viability
Experiment: Anticancer human tumor 519858-162-T-J1-PDC patient-derived colon adenocarcinoma cell line growth inhibition [KRAS2]
Details: for IC50: curve of first compound; for viability, T/C: stronger effect = lower value
Outline: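 KRAS-mutant tumor cells were grown as spheroids with HUVEC endothelial cells and human MSCs as stroma. Targeted agents were tested alone and with KRAS pathway inhibitors. Doses started at or near clinical Cmax, or 10 microM, descending half-log.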

[1] = second compound 0.1 µM, first compound 0.0316 µM
[2] = second compound 0.1 µM, first compound 0.1 µM
[3] = second compound 0.1 µM, first compound 0.316 µM
[4] = second compound 0.1 µM, first compound 1 µM
[5] = second compound 0.1 µM, first compound 3.16 µM
[6] = second compound 0.1 µM, first compound 10 µM
[7] = second compound 0.316 µM, first compound 0.0316 µM
[8] = second compound 0.316 µM, first compound 0.1 µM
[9] = second compound 0.316 µM, first compound 0.316 µM
[10] = second compound 0.316 µM, first compound 1 µM
[11] = second compound 0.316 µM, first compound 3.16 µM
[12] = second compound 0.316 µM, first compound 10 µM
[13] = second compound 1 µM, first compound 0.0316 µM
[14] = second compound 1 µM, first compound 0.1 µM
[15] = second compound 1 µM, first compound 0.316 µM
[16] = second compound 1 µM, first compound 1 µM
[17] = second compound 1 µM, first compound 3.16 µM
[18] = second compound 1 µM, first compound 10 µM
[19] = second compound 3.16 µM, first compound 0.0316 µM
[20] = second compound 3.16 µM, first compound 0.1 µM
[21] = second compound 3.16 µM, first compound 0.316 µM
[22] = second compound 3.16 µM, first compound 1 µM
[23] = second compound 3.16 µM, first compound 3.16 µM
[24] = second compound 3.16 µM, first compound 10 µM
[25] = second compound 10 µM, first compound 0.0316 µM
[26] = second compound 10 µM, first compound 0.1 µM
[27] = second compound 10 µM, first compound 0.316 µM
[28] = second compound 10 µM, first compound 1 µM
[29] = second compound 10 µM, first compound 3.16 µM
[30] = second compound 10 µM, first compound 10 µM
[31] = second compound 0.1 µM, first compound 0.00316 µM
[32] = second compound 0.1 µM, first compound 0.01 µM
[33] = second compound 0.316 µM, first compound 0.00316 µM
[34] = second compound 0.316 µM, first compound 0.01 µM
[35] = second compound 1 µM, first compound 0.00316 µM
[36] = second compound 1 µM, first compound 0.01 µM
[37] = second compound 3.16 µM, first compound 0.00316 µM
[38] = second compound 3.16 µM, first compound 0.01 µM
[39] = second compound 10 µM, first compound 0.00316 µM
[40] = second compound 10 µM, first compound 0.01 µM
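Note: compound exposure lasted seven days before readout.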
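Throughout, for viability, T/C: 100% = DMSO vehicle control viability.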

| Structure (SMILES) | IC50 (second compound 0.1 µM) [nM] | IC50 (second compound 0.316 µM) [nM] | IC50 (second compound 1 µM) [nM] | IC50 (second compound 3.16 µM) [nM] | IC50 (second compound 10 µM) [nM] | viability, T/C [1] [%] | viability, T/C [2] [%] | viability, T/C [3] [%] | viability, T/C [4] [%] | viability, T/C [7] [%] | viability, T/C [8] [%] | viability, T/C [9] [%] | viability, T/C [10] [%] | viability, T/C [13] [%] | viability, T/C [14] [%] | viability, T/C [15] [%] | viability, T/C [19] [%] | viability, T/C [20] [%] | viability, T/C [25] [%] | viability, T/C [26] [%] | other results |
| --- | --- | --- | --- | --- | --- | --- | --- | --- | --- | --- | --- | --- | --- | --- | --- | --- | --- | --- | --- | --- | --- |
| CC(C)NCC(C(=O)N1CCN(c2ncnc3c2C(C)CC3O)CC1)c1ccc(Cl)cc1 (stereo not given) + COc1cc2nc(C)nc(NC(C)c3cc(N)cc(C(F)(F)F)c3)c2cc1OC1CCOC1 | 10000 | > 10000 | > 10000 | > 10000 | > 10000 | 72.5 | 89.6 | 86.2 | 99.4 | 67.6 | 105 | 89.6 | 74.3 | 77.4 | 113 | 78.2 | 78 | 69.2 | 58.7 | 62 | viability, T/C [5]: 41.4%; viability, T/C [6]: 71%; viability, T/C [11]: 65.2%; viability, T/C [12]: 78.4%; viability, T/C [16]: 66%; viability, T/C [17]: 49.4%; viability, T/C [18]: 60.3%; viability, T/C [21]: 56.6%; viability, T/C [22]: 56.1%; viability, T/C [23]: 61.5%; viability, T/C [24]: 64.1%; viability, T/C [27]: 61.2%; viability, T/C [28]: 52.3%; viability, T/C [29]: 58.8%; viability, T/C [30]: 72% |
| CC1(C)CCC(CN2CCN(c3ccc(C(=O)NS(=O)(=O)c4ccc(NCC5CCOCC5)c([N+](=O)[O-])c4)c(Oc4cnc5[nH]ccc5c4)c3)CC2)=C(c2ccc(Cl)cc2)C1 + COc1cc2nc(C)nc(NC(C)c3cc(N)cc(C(F)(F)F)c3)c2cc1OC1CCOC1 | > 10000 | > 10000 | 5240 | 6200 | 2660 | 105 | 85.7 | 74.5 | 82.5 | 116 | 92.4 | 92.3 | 78.9 | 73.7 | 79.9 | 98.9 | 63.5 | 63.3 | 82.1 | 60.9 | viability, T/C [5]: 73.6%; viability, T/C [6]: 101%; viability, T/C [11]: 76.5%; viability, T/C [12]: 52.5%; viability, T/C [16]: 80.5%; viability, T/C [17]: 66.8%; viability, T/C [18]: 28.6%; viability, T/C [21]: 82%; viability, T/C [22]: 69.5%; viability, T/C [23]: 73%; viability, T/C [24]: 35.8%; viability, T/C [27]: 92.9%; viability, T/C [28]: 78.6%; viability, T/C [29]: 45%; viability, T/C [30]: 37.8% |
| CCN1CCN(Cc2ccc(Nc3ncc(F)c(-c4cc(F)c5nc(C)n(C(C)C)c5c4)n3)nc2)CC1 + COc1cc2nc(C)nc(NC(C)c3cc(N)cc(C(F)(F)F)c3)c2cc1OC1CCOC1 | 526 | 391 | 391 | 471 | 44.6 | 77.2 | 74.5 | 62.1 | 34.7 | 72.3 | 98.2 | 54.8 | 29 | 77.6 | 61.8 | 55.1 | 48.9 | 67.2 | 64.8 | 38.3 | viability, T/C [31]: 76.9%; viability, T/C [32]: 78.5%; viability, T/C [33]: 83.8%; viability, T/C [34]: 56%; viability, T/C [35]: 51.5%; viability, T/C [36]: 80.2%; viability, T/C [16]: 30.1%; viability, T/C [37]: 69.3%; viability, T/C [38]: 51%; viability, T/C [21]: 73.8%; viability, T/C [22]: 27.4%; viability, T/C [39]: 84%; viability, T/C [40]: 58%; viability, T/C [27]: 20.2%; viability, T/C [28]: 19.4% |
| Cn1ncnc1[C@H]1c2n[nH]c(=O)c3cc(F)cc(c23)N[C@@H]1c1ccc(F)cc1 + COc1cc2nc(C)nc(NC(C)c3cc(N)cc(C(F)(F)F)c3)c2cc1OC1CCOC1 | > 100 | > 100 | > 100 | > 100 | > 100 | 76.9 | 80.1 | – | – | 77 | 74.5 | – | – | 68 | 58 | – | 47.8 | 70.6 | 57.8 | 48.4 | viability, T/C (second compound 0.1 µM, first compound 0.000316 µM): 71.8%; viability, T/C (second compound 0.1 µM, first compound 0.001 µM): 95.3%; viability, T/C [31]: 73.5%; viability, T/C [32]: 71.8%; viability, T/C (second compound 0.316 µM, first compound 0.000316 µM): 68.2%; viability, T/C (second compound 0.316 µM, first compound 0.001 µM): 68.7%; viability, T/C [33]: 59.2%; viability, T/C [34]: 74.9%; viability, T/C (second compound 1 µM, first compound 0.000316 µM): 74.7%; viability, T/C (second compound 1 µM, first compound 0.001 µM): 67.3%; viability, T/C [35]: 70.9%; viability, T/C [36]: 97.4%; viability, T/C (second compound 3.16 µM, first compound 0.000316 µM): 45.8%; viability, T/C (second compound 3.16 µM, first compound 0.001 µM): 60.3%; viability, T/C [37]: 45.7%; viability, T/C [38]: 69.8%; viability, T/C (second compound 10 µM, first compound 0.000316 µM): 49.7%; viability, T/C (second compound 10 µM, first compound 0.001 µM): 55.6%; viability, T/C [39]: 57.8%; viability, T/C [40]: 50.7% |
